Measurements taken from US8399689B2, “Chrysophaentin antimicrobial compounds that inhibit FtsZ protein” (The United States of America, as represented by the …, priority 2010, dated 2013).
In brackets after ≈: the same amount, converted by molar mass. Like-named read-outs stand apart in the source and are kept apart here.

Tests used:
[1] = test system: Staphylococcus aureus (SA, ATCC 25923); experiment: Agar disk diffusion assay, S. aureus; format: cell-based; conditions: Lowest concentrations leading to 8-10 mm zones of inhibition
Protocol: (§1) Compounds 1-8 were tested for antimicrobial activity against Staphylococcus aureus (SA, ATCC 25923), methicillin-resistant S. aureus (MRSA, ATCC BAA-41), multidrug-resistant S. aureus (MDRSA, ATCC BAA-44), Enterococcus faecium (EF, ATCC 49032), vancomycin-resistant E. Faecium (VRE, ATCC 700221), and Bacillus subtilis (ATCC 49343) using a modified disk diffusion assay and microbroth liquid dilution assays. For disk diffusion assays, agar plates seeded with suspensions of bacteria were prepared by adding 500 μL of a 24 h culture of bacteria to 100 mL of autoclaved Mueller Hinton II agar and cooled to 55° C. Seeded liquid agar (10 mL) was transferred immediately to square Petri dishes and allowed to cool for 1 h. Control drugs used for each microorganism included kanamycin (50 μg) for S. aureus, and nitrofurantoin (25 μg) for MRSA. Following incubation at 37° C. for 18 h, zones of inhibition were measured. MICso values for compounds 1 and 4-8 were determined using a microbroth dilution assay outlined in the Clinical and Laboratory Standards Institute methods for susceptibility tests for bacteria that grow aerobically. Briefly, single bacterial colonies were used to inoculate 4 mL of Trypticase Soy broth (BD) for overnight growth and inoculum for each were diluted to 5×10^5 CFU/mL using the 0.5 McFarland standard. In a 96 well plate (Costar, round bottom), control antibiotics (oxacillin for SA and MRSA, vancomycin for EF and VRE, chloramphenicol for B. subtilis) or natural product inhibitors were added to Muller Hinton II broth (for S. aureus, MRSA, and B. subtilis) or 10% brain heart infusion broth (for E. faecium and VRE) in the first column of the well plates, and serially diluted across the plate, reserving wells for a positive growth control (no treatment). 10 μL of diluted bacteria were added to all wells with the exception of those kept for broth blanks (MHII or brain heart infusion broth only). Plates were incubated at 37° C. overnight and read at absorbance 600 nm on a Molecular Devices plate reader. Growth curves were plotted and ICso values obtained using Kalidagraph software.

[2] = test system: methicillin-resistant S. aureus (MRSA, ATCC BAA-41); experiment: Microbroth dilution assay, MRSA; format: cell-based, Staphylococcus aureus; conditions: for MIC50: Staphylococcus aureus, read-out: MIC50 (μg/mL) MRSA
Protocol: as §1

[3] = test system: Staphylococcus aureus (SA, ATCC 25923); experiment: Microbroth dilution assay, S. aureus; format: cell-based; conditions: for MIC50: Staphylococcus aureus
Protocol: as §1

[4] = test system: Enterococcus faecium (EF, ATCC 49032); experiment: Agar disk diffusion assay, E. faecium; format: cell-based; conditions: Lowest concentrations leading to 8-10 mm zones of inhibition
Protocol: as §1

[5] = test system: methicillin-resistant S. aureus (MRSA, ATCC BAA-41); experiment: Agar disk diffusion assay, MRSA; format: cell-based, Staphylococcus aureus; conditions: Lowest concentrations leading to 8-10 mm zones of inhibition
Protocol: as §1

[6] = test system: vancomycin-resistant E. Faecium (VRE, ATCC 700221); experiment: Microbroth dilution assay, VREF; format: cell-based, Enterococcus faecium; conditions: for MIC50: Enterococcus faecium, read-out: MIC50 (μg/mL) VREF
Protocol: as §1

[7] = test system: vancomycin-resistant E. Faecium (VRE, ATCC 700221); experiment: Agar disk diffusion assay, VREF; format: cell-based, Enterococcus faecium; conditions: Lowest concentrations leading to 8-10 mm zones of inhibition
Protocol: as §1

[8] = test system: Gram-positive pathogens (S. aureus, B. subtilis, E. faecium, MRSA, MDRSA, VREF); experiment: Disk diffusion and microbroth dilution assays, strains taken together; format: cell-based
Source text: Solid agar disk diffusion and microbroth dilution assays were used to evaluate the antimicrobial activities of compounds 1, hexaacetate 1a, and 4-8 toward clinically relevant, Gram-positive pathogens, including the drug-susceptible bacteria Staphylococcus aureus, Bacillus subtilis and Enterococcus faecium, and drug-resistant strains methicillin-resistant S. aureus (MRSA), multidrug-resistant S. aureus (MDRSA), and vancomycin-resistant E. faecium (VREF) (see Table 7, Example 2).
as §1, with “In a 96 well plate (Costar, round bottom), control antibiotics (oxacillin for SA and MRSA, vancomycin for EF and VRE, chloramphenicol for B. subtilis) or natural product inhibitors were added to Muller Hinton II broth (for S. aureus, MRSA, and B. subtilis) or 10% brain heart infusion broth (for E. faecium and VRE) in the first column of the well plates, and serially diluted across the plate, reserving wells for a positive growth control (no treatment). 10 μL of diluted bacteria were added to all wells with the exception of those kept for broth blanks (MHII or brain heart infusion broth only).” left out, “Growth curves were plotted and ICso values obtained using Kalidagraph software.” left out

[9] = test system: Enterococcus faecium (EF, ATCC 49032); experiment: Microbroth dilution assay, E. faecium; format: cell-based; conditions: concentration at which growth is reduced by 50%; for MIC50: Enterococcus faecium, ATCC49032, microbroth dilution, read-out: MIC50 (μg/mL) E. faecium
Protocol: as §1

tubulin = experiment: Tubulin polymerization assay; format: biochemical; conditions: chrysophaentin 1 at 150 μM; paclitaxel, nocodazole at standardized concentrations
[10] = microbroth dilution, concentration at which growth is reduced by 50%
[11] = ATCC25923, microbroth dilution, concentration at which growth is reduced by 50%, read-out: MIC50 (μg/mL) S. aureus
[12] = ATCC25923, read-out: MIC50 (μg/mL) S. aureus

SMILES | Agar disk diffusion (μg/disk) S. aureus [1] | MIC50 [2, 10] | MIC50 [3, 11] | Agar disk diffusion (μg/disk) E. faecium [4] | Agar disk diffusion (μg/disk) MRSA [5] | MIC50 [6, 10] | Agar disk diffusion (μg/disk) VREF [7] | fold change in MIC50 versus chrysophaentin 1 ([8]; all four strains) | MIC50 [9] | MIC50 [3, 12] | MIC50 (μg/mL) VREF [6, 10] | MIC50 (μg/mL) E. faecium ([9]; microbroth dilution) | MIC50 (μg/mL) MRSA [2, 10] | MIC50 (μg/mL) S. aureus [3, 10] | potency relative to compound 7 [8] | MIC50 [2] | MIC50 [6] | tubulin polymerization velocity v (tubulin)
Oc1cc(O)c2c(c1)C/C(Cl)=C\Cc1cc(c(Br)cc1O)Oc1c(O)cc(cc1O)C/C(Cl)=C\Cc1cc(c(Br)cc1O)O2 [Compound 4, chrysophaentin 4] | 25 μg/disk | 19 ± 5.9 µg/mL (≈ 24.8 µM) | > 25 µg/mL | 25 μg/disk | 25 μg/disk | > 25 µg/mL | 25 μg/disk | ~12 fold | > 50 µg/mL |  |  |  |  |  |  |  |  | 
Oc1cc(O)cc(C/C(Cl)=C\Cc2cc(Oc3c(O)cc(C/C(Cl)=C\Cc4cc(O)c(Cl)cc4O)cc3O)c(Cl)cc2O)c1 [Compound 5, chrysophaentin 5] | 25 μg/disk | 8.9 ± 2.8 µg/mL (≈ 13.1 µM) |  | 25 μg/disk | 10 μg/disk | > 25 µg/mL | 25 μg/disk |  | > 25 µg/mL | 10.5 ± 3.8 µg/mL (≈ 15.4 µM) | >25 µg/mL | >25 µg/mL |  |  |  |  |  | 
Oc1cc(Cl)c2cc1C/C=C(/Cl)Cc1cc(O)c(c(O)c1)Oc1cc(c(O)cc1Cl)C/C=C(/Cl)Cc1cc(O)c(c(O)c1)O2 [Compound 6, chrysophaentin 6] | 10 μg/disk | 4 to 6 µg/mL (≈ 5.9 to 8.85 µM) | 4 to 6 µg/mL (≈ 5.9 to 8.85 µM) | 10 μg/disk | 10 μg/disk | ~9.5 µg/mL (≈ 14 µM) | 10 μg/disk |  | > 25 µg/mL |  | 9.5 ± 3.0 µg/mL (≈ 14 µM) |  | 4.2 ± 1.2 µg/mL (≈ 6.19 µM) | 5.3 ± 1.9 µg/mL (≈ 7.81 µM) | at least 3 × |  |  | 
Oc1cc(Cl)c2cc1C/C=C(/Cl)Cc1cc(O)c(c(O)c1)Oc1cc(c(O)cc1Br)C/C=C(/Cl)Cc1cc(O)c(c(O)c1)O2 [Compound 7, chrysophaentin 7] | NA (NA, no zone of inhibition observed at 25 μg/disk) |  |  | NA (NA, no zone of inhibition observed at 25 μg/disk) | NA (NA, no zone of inhibition observed at 25 μg/disk) |  | NA (NA, no zone of inhibition observed at 25 μg/disk) |  | > 50 µg/mL | 16.6 ± 5.3 µg/mL (≈ 23 µM) |  |  |  |  |  | 12.3 ± 3.1 µg/mL (≈ 17 µM) | 24.6 ± 7.3 µg/mL (≈ 34 µM) | 
Oc1cc(Cl)c2cc1C/C=C(/Cl)Cc1cc(O)c(c(O)c1Br)Oc1cc(c(O)cc1Cl)C/C=C(/Cl)Cc1cc(O)c(c(O)c1)O2 [Compound 8, chrysophaentin 8] |  | 4 to 6 µg/mL (≈ 5.28 to 7.92 µM) | 4 to 6 µg/mL (≈ 5.28 to 7.92 µM) |  |  | ~9.5 µg/mL (≈ 12.5 µM) |  |  | > 25 µg/mL |  |  |  |  |  |  |  |  | 
COC(=O)Nc1nc2ccc(C(=O)c3cccs3)cc2[nH]1 [nocodazole, reference compound] |  |  |  |  |  |  |  |  |  |  |  |  |  |  |  |  |  | 12 min⁻¹
CC(=O)O[C@H]1C(=O)[C@@]2(C)[C@H]([C@H](OC(=O)c3ccccc3)[C@]3(O)C[C@H](OC(=O)[C@H](O)[C@@H](NC(=O)c4ccccc4)c4ccccc4)C(C)=C1C3(C)C)[C@]1(OC(C)=O)CO[C@@H]1C[C@@H]2O [paclitaxel, reference compound] |  |  |  |  |  |  |  |  |  |  |  |  |  |  |  |  |  | 80 min⁻¹
